# Data from paper PMC9964140, “Exploration of Succinimide Derivative as a Multi-Target, Anti-Diabetic Agent: In Vitro and In Vivo Approaches” (Molecules, 2023).
# Legend:
# Antioxidant (DPPH) test = details: DPPH free radical scavenging
# Protocol: For identifying free radicals and the scavenging potential of new organic compounds, Sigma Aldrich USA’s DPPH was employed. Methanol was employed as a solvent for preparing test samples of varying strengths of the examined substances. Two milliliters of the test sample’s variation strength were blended separately with two milliliters of the DPPH solution and 0.002% methanol. After being stored in the dark and at room temperature for 30 min, test tubes were examined using a UV spectrophotometer to measure the absorbance at 517 nm. As is customary, ascorbic acid was employed here, and the procedure was then repeated three times. Utilizing the formula below, the tested specimen’s scavenging activity was calculated: Scavenging activity % = (A − B)/A × 100. The letters “A” and “B” stand for the absorbance of the DPPH and the test sample, respectively. By plotting a graph of the scavenging effect of the tested compounds versus the concentration of the corresponding solution, IC50 values were determined.
# DPP-4 = DPP-4 (Homo sapiens, UniProt P27487); assay: Dipeptidyl peptidase-4 (DPP-4) fluorescence probe test; type: biochemical; details: ± SEM; read-out: IC50 DPP4
# Sequence of DPP-4 (P27487 whole entry, species assumed): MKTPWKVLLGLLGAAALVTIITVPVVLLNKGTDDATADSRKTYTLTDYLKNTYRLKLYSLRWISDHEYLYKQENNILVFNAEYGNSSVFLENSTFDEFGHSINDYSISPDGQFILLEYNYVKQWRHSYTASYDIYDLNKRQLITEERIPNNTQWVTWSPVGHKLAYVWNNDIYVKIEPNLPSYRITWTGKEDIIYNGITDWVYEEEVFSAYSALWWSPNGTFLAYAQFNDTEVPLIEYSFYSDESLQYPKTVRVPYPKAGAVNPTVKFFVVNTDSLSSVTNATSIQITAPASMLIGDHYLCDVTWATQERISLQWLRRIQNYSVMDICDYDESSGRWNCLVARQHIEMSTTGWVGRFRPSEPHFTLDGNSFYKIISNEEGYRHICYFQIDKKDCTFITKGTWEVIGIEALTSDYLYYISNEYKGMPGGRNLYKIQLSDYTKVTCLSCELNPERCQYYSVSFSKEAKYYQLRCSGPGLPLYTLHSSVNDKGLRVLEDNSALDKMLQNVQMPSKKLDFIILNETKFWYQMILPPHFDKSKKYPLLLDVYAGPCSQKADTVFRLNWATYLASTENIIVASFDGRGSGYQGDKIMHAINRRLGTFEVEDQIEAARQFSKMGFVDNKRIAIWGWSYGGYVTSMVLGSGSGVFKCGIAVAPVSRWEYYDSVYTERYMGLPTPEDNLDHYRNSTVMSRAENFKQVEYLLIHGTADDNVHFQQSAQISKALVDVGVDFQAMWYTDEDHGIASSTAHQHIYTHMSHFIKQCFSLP
# Protocol: Our compound’s inhibitory impact on the DPP-4 target was identified by a fluorescence probe in vitro assay. […] In a 96-well microplate reader, the test results were recorded. At first, various concentrations of the chemical were used to determine its action. Then, in accordance with the normal approach, a dose-dependent response was identified in order to estimate the IC50 value.
# α-Glucosidase = assay: Alpha-glucosidase test; type: biochemical; details: ± SEM
# Protocol: A concentration of 0.5 mg/11 mL distilled water and a substrate solution of glucopyranoside at 15 mg/10 mL distilled water concentration were added to […] of a phosphate buffer and kept at 37 °C for 20 min, respectively, to prepare the sample. To prepare the control, 1200 μL of the phosphate buffer was added to the test tube. Next, 400 μL of the substrate solution (glucopyranoside 15 mg/10 mL distilled water) and 800 µL of an enzyme solution were mixed. At last, the temperature was kept at 37 °C for 20 min.
# [1] = test system: STZ-induced diabetic mice; assay: Body weight, insulin, lipid profile, serum markers and histopathology in STZ-induced diabetic mice; type: in vivo; details: for histopathology of liver, kidney and pancreas: H & E staining; for effect on body weight of diabetic mice: treated; for insulin levels: treated STZ-induced diabetic mice, untreated diabetic group 2.5 ± 0.15, normal control 13.5 ± 0.95
# Protocol: (§1) The mice were placed into 4 groups, with 5 animals in each group having elevated blood glucose levels. Group I was the normal group, which had normal blood glucose levels and was given saline. Group II was treated with a Tween 80 solution; in this group, diabetic mice were kept. Glibenclamide was administered at a 500 μM/Kg dose to group III, which was the control group with diabetic mice. Group IV, the final group, received treatment with different concentrations of the produced substance. The mice were killed after three weeks (21 days) by cervical decapitation, and blood samples and organs were taken for H & E staining-based histological analysis and for bioassays.
# α-Amylase = assay: Alpha-amylase test; type: biochemical; details: ± SEM
# Protocol: In order to evaluate the alpha-amylase test, standardized reporting protocols were followed [35]. In order to combine the enzyme and the phosphate buffer, test samples of varying strengths were added to the enzymatic solution. Incubation of the sample was followed by admixing of starch to both the control and test solutions and a dinitro salicylic acid solution. The sample combination was then maintained in a boiling water bath for a short period of time, and a microplate reader was used to measure the absorbance at 656 nm.
# The formula below was used to calculate the α-amylase enzyme’s percentage inhibition capability: Percent Inhibition=Absorbance of Control − Absorbance of Sample ×100/Absorbance of Control
# mice = details: mouse, in vivo
# Protocol: Prior to putting the drug through tests on lab animals, its acute toxicity was determined. Two groups of experimental mice, (1) the control group and (2) the test group, were used for this experiment. Each group consisted of five mice. It was conducted intraperitoneally with different concentrations of the chemical. The mice were then closely examined for three days in the animal home after the chemical was administered to check for death or any unfavorable reactions.
# diabetic mice = assay: In vivo anti-diabetic assay (blood glucose, 21 days); set-up: species or system albino mice
# Excerpt: For in vivo anti-diabetic efficacy, albino mice having weight of 30 g were employed. The animals utilized in experiments were compliant with the 2008 Animal Bye-Laws of the Pharmacy Department at the University of Malakand in Pakistan (Scientific Procedure Issue-I). The animals were handled according to accepted practices and housed in an animal facility during the experimental procedures. The animals were put to death following the experiment in accordance with AVMA rules.
# The mice were given 10% alloxan monohydrate at a dose of 150 mg/kg body weight through IP in order to induce diabetes. The control group received a normal saline IP during this trial. Following the administration of alloxan, the animals’ blood glucose levels were checked using a glucometer. According to the protocols, in the in vivo study, mice with elevated blood sugar concentrations were also utilized.
# as §1
# PTP1 B = biological target: T1, PTP1 B (Homo sapiens, UniProt P18031); assay: Protein tyrosine phosphatase 1 B (PTP1 B) test; type: biochemical; details: ± SEM; pH 7, 40 min at 27 °C
# T1 sequence (P18031 1-435): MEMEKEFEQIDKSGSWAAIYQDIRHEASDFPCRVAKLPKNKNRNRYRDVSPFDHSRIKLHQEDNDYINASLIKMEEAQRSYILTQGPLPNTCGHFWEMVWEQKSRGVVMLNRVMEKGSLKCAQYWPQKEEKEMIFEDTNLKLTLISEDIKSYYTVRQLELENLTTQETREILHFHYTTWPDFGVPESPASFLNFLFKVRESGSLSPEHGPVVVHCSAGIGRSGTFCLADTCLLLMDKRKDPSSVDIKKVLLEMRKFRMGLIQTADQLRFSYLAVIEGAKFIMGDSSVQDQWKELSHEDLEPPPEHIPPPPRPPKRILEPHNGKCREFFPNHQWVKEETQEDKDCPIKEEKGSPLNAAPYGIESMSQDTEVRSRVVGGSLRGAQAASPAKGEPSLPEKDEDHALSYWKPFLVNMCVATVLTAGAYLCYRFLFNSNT
# Protocol: It is performed with a buffer solution of 3,3-dimethyl glutarate at a pH of 7. Additionally, a PTP1 B 10 mM solution, p-NO2-phenol phosphate of 1 mM, and numerous additional concentrations of the substance were made. As a result, the mixtures were incubated for 40 min at 27 °C. Then, measurements of the absorbances were conducted at 405 nm after the designated 40 min.
# [2] = diabetic mice, compared to diabetic mice not given the medication
smiles,measurement,setting,value
"O=C1O[C@H]([C@@H](O)CO)C(O)=C1O [Ascorbic acid, reference compound]",IC50,Antioxidant (DPPH) test,1.44 ± 0.2 µM
"COc1cc(CC(C)=O)ccc1OC1CC(=O)N(Cc2ccccc2)C1=O (stereo not shown) [Compound 3, 1-benzyl-3-(2-methoxy-4-(2-oxopropyl)phenoxy)pyrrolidine-2,5-dione]",IC50,DPP-4,0.07 ± 0.03 µM
same,IC50,α-Glucosidase,7.2 ± 0.92 µM
same,body weight gain,"[1]; STZ + compound 3 group (Tg-5), final vs initial day, diabetic group lost 1.9 ± 0.05 g",1.55 g
same,BUN,[1]; STZ-induced diabetic mice,decreased the excess peak
same,HDL levels,[1]; STZ-induced diabetic mice,raising HDL levels
same,LDL levels,[1]; STZ-induced diabetic mice,dramatically reduced
same,creatinine,[1]; STZ-induced diabetic mice,decreased the excess peak
same,serum ALP,[1]; STZ-induced diabetic mice,suppressed the enhanced rise
same,serum ALT,[1]; STZ-induced diabetic mice,suppressed the enhanced rise
same,serum AST,[1]; STZ-induced diabetic mice,suppressed the enhanced rise
same,"histopathology of liver, kidney and pancreas",[1]; STZ-induced diabetic mice,healed from the histological injuries
same,effect on body weight of diabetic mice,[1]; STZ-induced diabetic mice,recovered their bodyweight
same,reduction of total cholesterol,[1]; [2],34.9%
same,reduction of total triglycerides,[1]; [2],35.20%
same,effect on body weight of non-diabetic mice,[1]; non-diabetic group,did not affect the body weights
same,insulin levels,[1],10.9 ± 0.25 ng/mL
same,IC50,α-Amylase,15.4 ± 0.15 µM
same,acute toxicity: allergic reaction,mice,no sign of an allergic reaction
same,acute toxicity outcome,mice; ip,safe and had no adverse effects
same,Blood Glucose Level 0 Day,diabetic mice; 15.625 µM/kg IP,22.7 mmole per Liter
same,Blood Glucose Level 7th Day,diabetic mice; 15.625 µM/kg IP,19.7 mmole per Liter
same,Blood Glucose Level 14th Day,diabetic mice; 15.625 µM/kg IP,17.6 mmole per Liter
same,Blood Glucose Level 21st Day,diabetic mice; 15.625 µM/kg IP,15.1 mmole per Liter
same,Blood Glucose Level 0 Day,diabetic mice; 31.25 µM/kg IP,22.9 mmole per Liter
same,Blood Glucose Level 7th Day,diabetic mice; 31.25 µM/kg IP,19.1 mmole per Liter
same,Blood Glucose Level 14th Day,diabetic mice; 31.25 µM/kg IP,17.1 mmole per Liter
same,Blood Glucose Level 21st Day,diabetic mice; 31.25 µM/kg IP,13.6 mmole per Liter
same,Blood Glucose Level 0 Day,diabetic mice; 62.5 µM/kg IP,23.2 mmole per Liter
same,Blood Glucose Level 7th Day,diabetic mice; 62.5 µM/kg IP,19.3 mmole per Liter
same,Blood Glucose Level 14th Day,diabetic mice; 62.5 µM/kg IP,16.7 mmole per Liter
same,Blood Glucose Level 21st Day,diabetic mice; 62.5 µM/kg IP,13.1 mmole per Liter
same,Blood Glucose Level 0 Day,diabetic mice; 125 µM/kg IP,22.6 mmole per Liter
same,Blood Glucose Level 7th Day,diabetic mice; 125 µM/kg IP,18.9 mmole per Liter
same,Blood Glucose Level 14th Day,diabetic mice; 125 µM/kg IP,16.2 mmole per Liter
same,Blood Glucose Level 21st Day,diabetic mice; 125 µM/kg IP,12.8 mmole per Liter
same,Blood Glucose Level 0 Day,diabetic mice; 250 µM/kg IP,22.4 mmole per Liter
same,Blood Glucose Level 7th Day,diabetic mice; 250 µM/kg IP,18.4 mmole per Liter
same,Blood Glucose Level 14th Day,diabetic mice; 250 µM/kg IP,15.7 mmole per Liter
same,Blood Glucose Level 21st Day,diabetic mice; 250 µM/kg IP,12.2 mmole per Liter
same,IC50,Antioxidant (DPPH) test,3.31 ± 0.65 µM
same,IC50,PTP1 B,13.2 ± 0.11 µM
"COc1ccc(Cl)cc1C(=O)NCCc1ccc(S(=O)(=O)NC(=O)NC2CCCCC2)cc1 [Glibenclamide, reference compound]",Blood Glucose Level 0 Day,diabetic mice; 250 µM/kg IP,21.5 mmole per Liter
same,Blood Glucose Level 7th Day,diabetic mice; 250 µM/kg IP,17.7 mmole per Liter
same,Blood Glucose Level 14th Day,diabetic mice; 250 µM/kg IP,14.5 mmole per Liter
same,Blood Glucose Level 21st Day,diabetic mice; 250 µM/kg IP,11.1 mmole per Liter
"CN(C)C(=N)N=C(N)N [Metformin, reference compound]",serum ALP,[1]; STZ-induced diabetic mice,suppressed the enhanced rise
same,serum ALT,[1]; STZ-induced diabetic mice,suppressed the enhanced rise
same,serum AST,[1]; STZ-induced diabetic mice,suppressed the enhanced rise
same,"histopathology of liver, kidney and pancreas",[1]; STZ-induced diabetic mice,healed from the histological injuries
same,effect on body weight of diabetic mice,[1]; STZ-induced diabetic mice,recovered their bodyweight
same,insulin levels,[1],12.2 ± 0.29 ng/mL
